In patent US9073882B2, “Inhibitors of the renal outer medullary potassium channel” (Merck Sharp & Dohme Corp., priority 2010, dated 2015):
Where two headings read alike, the source gives them in different places.

Assays:
hROMK1 (Kir1.1) = hROMK1 (Kir1.1) (Homo sapiens (Human), UniProt P48048); assay: ^86Rb^+ Efflux Assay; type: cell-based; conditions: CHO-DHFR- cells stably expressing hROMK1 (Kir1.1)
hROMK (hKir1.1) = hROMK (hKir1.1) (Homo sapiens (Human), UniProt P48048); assay: Thallium Flux Assay; type: cell-based; conditions: Table 2; HEK293 cells stably expressing hROMK (hKir1.1)
Sequence of hROMK (hKir1.1) (P48048 whole entry): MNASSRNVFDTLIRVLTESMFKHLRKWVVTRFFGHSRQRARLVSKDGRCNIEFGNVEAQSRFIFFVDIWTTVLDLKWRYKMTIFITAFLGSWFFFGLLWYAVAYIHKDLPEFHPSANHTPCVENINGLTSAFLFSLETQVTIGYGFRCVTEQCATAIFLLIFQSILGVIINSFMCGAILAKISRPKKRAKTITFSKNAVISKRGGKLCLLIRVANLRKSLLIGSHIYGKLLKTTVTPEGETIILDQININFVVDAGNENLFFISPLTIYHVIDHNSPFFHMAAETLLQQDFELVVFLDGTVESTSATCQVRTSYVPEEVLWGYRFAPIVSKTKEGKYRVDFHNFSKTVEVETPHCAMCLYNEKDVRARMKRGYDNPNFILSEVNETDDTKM

[1] = value in parentheses at the end of each Example, read-out: IC50 in the ^86Rb^+ Efflux Assay
[2] = Table 1, read-out: ^86Rb^+ Efflux Assay IC50

Sequence of hROMK1 (Kir1.1) (P48048 whole entry): as above

IC50 (hROMK1 (Kir1.1); [1]) [nM]	IC50 (hROMK (hKir1.1)) [nM]	IC50 (hROMK1 (Kir1.1); [2]) [nM]	Compound
78	17		Cc1c(CCN2CCN(CCc3ccc(C#N)c(F)c3Cl)CC2)ccc2c1COC2=O [Example 86, 3-Chloro-2-fluoro-4-(2-{4-[2-(4-methyl-1-oxo-1,3-dihydro-2-benzofuran-5-yl)ethyl]piperazin-1-yl}ethyl)benzonitrile]
35			Cc1c(CCN2CCN(CCc3ccc(C#N)c(Cl)c3)CC2)ccc2c1COC2=O [Example 71, 2-Chloro-4-(2-{4-[2-(4-methyl-1-oxo-1,3-dihydro-2-benzofuran-5-yl)ethyl]piperazin-1-yl}ethyl)benzonitrile]
71			COc1cc(CCN2CCN(CCc3ccc4c(c3C)COC4=O)CC2)c(Cl)cc1C#N [Example 80, 5-Chloro-2-methoxy-4-(2-{4-[2-(4-methyl-1-oxo-1,3-dihydro-2-benzofuran-5-yl)ethyl]piperazin-1-yl}ethyl)benzonitrile]
130			N#Cc1ccc(CCN2CCN(CCc3ccc4c(c3)COC4=O)CC2)c(Cl)c1F [Example 85, 3-Chloro-2-fluoro-4-(2-{4-[2-(1-oxo-1,3-dihydro-2-benzofuran-5-yl)ethyl]piperazin-1-yl}ethyl)benzonitrile]
160		160	Cc1c(CCN2CCN(CCc3ccc(C#N)c4ccccc34)CC2)ccc2c1COC2=O [Example 74, 4-(2-{4-[2-(4-Methyl-1-oxo-1,3-dihydro-2-benzofuran-5-yl)ethyl]piperazin-1-yl}ethyl)naphthalene-1-carbonitrile]
76		76	Cc1c(CCN2CCN(CCc3ccc4c(c3C)COC4=O)CC2)ccc2c1COC2=O [Example 59, 5,5′-(Piperazine-1,4-diyldiethane-2,1-diyl)bis(4-methyl-2-benzofuran-1(3H)-one)]
92			COc1c(C#N)ccc(CCN2CCN(CCc3ccc4c(c3)COC4=O)CC2)c1F [Example 72, 3-Fluoro-2-methoxy-4-(2-{4-[2-(1-oxo-1,3-dihydro-2-benzofuran-5-yl)ethyl]piperazin-1-yl}ethyl)benzonitrile]
68			COc1cc(CCN2CCN(CCc3ccc4c(c3)COC4=O)CC2)c(F)cc1C#N [Example 52, 5-Fluoro-2-methoxy-4-(2-{4-[2-(1-oxo-1,3-dihydro-2-benzofuran-5-yl)ethyl]piperazin-1-yl}ethyl)benzonitrile]
230			N#Cc1cc(F)c(CCN2CCN(CCc3ccc4c(c3)COC4=O)CC2)cc1F [Example 39, 2,5-Difluoro-4-[2-[4-[2-(1-oxo-3H-isobenzofuran-5-yl)ethyl]piperazin-1-yl]ethyl]benzonitrile]
63			Cc1c(CCN2CCN(CCc3ccc4c(c3C)COC4=O)CC2)ccc(C#N)c1F [Example 82, 2-Fluoro-3-methyl-4-(2-{4-[2-(4-methyl-1-oxo-1,3-dihydro-2-benzofuran-5-yl)ethyl]piperazin-1-yl}ethyl)benzonitrile]
78			COc1c(C#N)ccc(CCN2CCN(CCc3ccc4c(c3C)COC4=O)CC2)c1C [Example 84, 2-Methoxy-3-methyl-4-(2-{4-[2-(4-methyl-1-oxo-1,3-dihydro-2-benzofuran-5-yl)ethyl]piperazin-1-yl}ethyl)benzonitrile]
91			COc1c(C#N)ccc(CCN2CCN(CCc3ccc4c(c3C)COC4=O)CC2)c1F [Example 73, 3-Fluoro-2-methoxy-4-(2-{4-[2-(4-methyl-1-oxo-1,3-dihydro-2-benzofuran-5-yl)ethyl]piperazin-1-yl}ethyl)benzonitrile]

The next lines start with the compound.

Compound	IC50 (hROMK1 (Kir1.1); [1]) [nM]	IC50 (hROMK (hKir1.1)) [nM]	IC50 (hROMK1 (Kir1.1); [2]) [nM]
Cc1c(CCN2CCN(CC(C)c3ccc4c(c3C)COC4=O)CC2)ccc2c1COC2=O (stereo not drawn) [Example 94, 4-Methyl-5-(1-(4-(2-(4-methyl-1-oxo-1,3-dihydroisobenzofuran-5-yl)ethyl)piperazin-1-yl)propan-2-yl)isobenzofuran-1(3H)-one]	34	12	34
O=[N+]([O-])c1ccc(CCN2CCN(C3Cc4ccc([N+](=O)[O-])cc4C3)CC2)cc1 (stereo not drawn) [Example 30, 1-(5-Nitro-2,3-dihydro-1H-inden-2-yl)-4-[2-(4-nitrophenyl)ethyl]piperazine]	310		
N#Cc1ccc2c(c1)CC[C@H](N1CCN(CCc3ccc([N+](=O)[O-])cc3)CC1)C2 [Example 25, (6S)-6-{4-[2-(4-Nitrophenyl)ethyl]piperazin-1-yl}-5,6,7,8-tetrahydronaphthalene-2-carbonitrile]	83		
O=C1OCc2cc(CCN3CCN(C4CCc5cc6nonc6cc5C4)CC3)ccc21 (stereo not drawn) [Example 33, 5-{2-[4-(5,6,7,8-Tetrahydronaphtho[2,3-c][1,2,5]oxadiazol-6-yl)piperazin-1-yl]ethyl}-2-benzofuran-1(3H)-one]	210		
C[C@H]1Cc2cc(CCN3CCN(CCc4ccc5c(c4)C[C@H](C)OC5=O)CC3)ccc2C(=O)O1 [Example 58, (3S,3′S)-6,6′-(Piperazine-1,4-diyldiethane-2,1-diyl)bis(3-methyl-3,4-dihydro-1H-isochromen-1-one)]	650	240	
COc1cc(C(C)CN2CCN(CCc3ccc4c(c3)COC4=O)CC2)ccc1C#N (stereo not drawn) [Example 44, 2-Methoxy-4-[1-methyl-2-[4-[2-(1-oxo-3H-isobenzofuran-5-yl)ethyl]piperazin-1-yl]ethyl]benzonitrile]	280		
N#Cc1ccc(CCN2CCN(CCc3ccc([N+](=O)[O-])cc3)CC2)cc1F [Example 32, 2-Fluoro-4-(2-{4-[2-(4-nitrophenyl)ethyl]piperazin-1-yl}ethyl)benzonitrile]	240		
N#Cc1ccc(CCN2CCN(CCc3ccc4c(c3)COC4=O)CC2)cc1OC(F)F [Example 63, 2-(Difluoromethoxy)-4-(2-{4-[2-(1-oxo-1,3-dihydro-2-benzofuran-5-yl)ethyl]piperazin-1-yl}ethyl)benzonitrile]	150		
N#Cc1ccc2c(c1)OCCC2CN1CCN(CCc2ccc3c(c2)COC3=O)CC1 (stereo not drawn) [Example 36, 4-({4-[2-(1-Oxo-1,3-dihydro-2-benzofuran-5-yl)ethyl]piperazin-1-yl}methyl)-3,4-dihydro-2H-chromene-7-carbonitrile]	92		
O=[N+]([O-])c1ccc(CCN2CCN(CCc3ccc([N+](=O)[O-])cc3)C(C3CC3)C2)cc1 (stereo not drawn) [Example 11, 2-Cyclopropyl-1,4-bis[2-(4-nitrophenyl)ethyl]piperazine]	860		
N#Cc1cccc2c1CCC2CN1CCN(CCc2ccc3c(c2)COC3=O)CC1 (stereo not drawn) [Example 34, 1-((4-(2-(1-Oxo-1,3-dihydroisobenzofuran-5-yl)ethyl)piperazin-1-yl)methyl)-2,3-dihydro-1H-indene-4-carbonitrile]	270		
O=[N+]([O-])c1ccc(CCN2CCN(CCc3ccc([N+](=O)[O-])cc3)C(CO)C2)cc1 (stereo not drawn) [Example 13, {1,4-Bis[2-(4-nitrophenyl)ethyl]piperazin-2-yl}methanol]	260		
COc1cc(C#N)ccc1CCN1CCN(CCc2ccc([N+](=O)[O-])cc2)CC1 [Example 31, 3-Methoxy-4-(2-{4-[2-(4-nitrophenyl)ethyl]piperazin-1-yl}ethyl)benzonitrile]	300		
N#Cc1ccc2c(c1)CCC(N1CCN(CCc3ccc([N+](=O)[O-])cc3)CC1)C2 (stereo not drawn) [Example 3, 6-{4-[2-(4-Nitrophenyl)ethyl]piperazin-1yl}-5,6,7,8-tetrahydronaphthalene-2-carbonitrile]	50		
O=[N+]([O-])c1ccc(CCN2CCN(CCc3ccc([N+](=O)[O-])cc3)C(C(F)F)C2)cc1 (stereo not drawn) [Example 12, 2-(Difluoromethyl)-1,4-bis[2-(4-nitrophenyl)ethyl]piperazine]	440		
COc1cc(CCN2CCN(CCc3ccc([N+](=O)[O-])cc3)CC2)ccc1C#N [Example 22, 2-Methoxy-4-(2-{4-[2-(4-nitrophenyl)ethyl]piperazin-1-yl}ethyl)benzonitrile]	52		
COC(=O)[C@H](Cc1ccc([N+](=O)[O-])cc1)N1CCN(CCc2ccc([N+](=O)[O-])cc2)CC1 [Example 8, Methyl(2S)-3-(4-nitrophenyl)-2-{4-[2-(4-nitrophenyl)ethyl]piperazin-1-yl}propanoate]	510		
CC(Cc1ccc([N+](=O)[O-])cc1)N1CCN(C(C)Cc2ccc([N+](=O)[O-])cc2)CC1 (stereo not drawn) [Example 19, 1,4-Bis[1-methyl-2-(4-nitrophenyl)ethyl]piperazine]	330		
